Test results taken from US8497380B2, “Substituted acetophenones useful as PDE4 inhibitors” (Leo Pharma A/S, priority 2006, dated 2013).

system: Human peripheral blood mononuclear cells (PBMC); experiment: TNFalfa-Release; type: cell-based; conditions: inhibition of TNF-a secretion, PBMC pre-incubated 30 minutes, stimulated 18 hours with lipopolysaccharide
Description: Human peripheral blood mononuclear cells (PBMC) are Isolated from buffy coats. The blood is mixed with saline at a ratio of 1:1, and the PBMC is isolated by the use of Lymphoprep Tubes™ (Nycomed, Norway). The PBMC is suspended in RPMI1640 with 2% foetal calf serum (FCS), pen/strep and 2 mM L-glutamine at a concentration of 5×105 c/ml. The cells are pre-incubated for 30 minutes with the test compounds in 96 well tissue culture plates and stimulated for 18 hours with lipopolysaccharide 1 mg/ml (Sigma). The level of TNF-a is measured in the culture supernatant by enzyme immuno assays using primary and secondary biotinylated antibodies from R&D systems. Results are expressed as pIC50 values calculated from inhibition curves using as positive controls the secretion in LPS stimulated wells and as negative controls the secretion in unstimulated cells.

Row | SMILES | IC50 [nM]
1 | COc1ccc(C(=O)Cc2c(Cl)cncc2Cl)c(OCc2ccc(Cl)s2)c1OC [Compound 121, 1-[2-(5-Chloro-thiophen-2-ylmethoxy)-3,4-dimethoxy-phenyl]-2-(3,5-dichloro-pyridin-4-yl)-ethanone] | < 1000
2 | COc1ccc(C(=O)Cc2c(Cl)cncc2Cl)c(OCCOc2ccccc2)c1OC [Compound 122, 2-(3,5-Dichloro-pyridin-4-yl)-1-[3,4-dimethoxy-2-(2-phenoxy-ethoxy)-phenyl]-ethanone] | < 1000
3 | COc1ccc(C(=O)Cc2c(Cl)cncc2Cl)c(OCCc2ccc(C)cc2)c1OC [Compound 123, 2-(3,5-Dichloro-pyridin-4-yl)-1-[3,4-dimethoxy-2-(2-p-tolyl-ethoxy)-phenyl]-ethanone] | < 1000
4 | COc1ccc(C(=O)Cc2c(Cl)cncc2Cl)c(OCCCc2ccccc2)c1OC [Compound 124, 2-(3,5-Dichloro-pyridin-4-yl)-1-[3,4-dimethoxy-2-(3-phenyl-propoxy)-phenyl]-ethanone] | < 1000
5 | COc1cccc(CCOc2c(C(=O)Cc3c(Cl)cncc3Cl)ccc(OC)c2OC)c1 [Compound 125, 2-(3,5-Dichloro-pyridin-4-yl)-1-{3,4-dimethoxy-2-[2-(3-methoxy-phenyl)-ethoxy]-phenyl}-ethanone] | < 1000
6 | COc1ccc(CCOc2c(C(=O)Cc3c(Cl)cncc3Cl)ccc(OC)c2OC)cc1 [Compound 126, 2-(3,5-Dichloro-pyridin-4-yl)-1-{3,4-dimethoxy-2-[2-(4-methoxy-phenyl)-ethoxy]-phenyl}-ethanone] | < 1000
7 | COc1ccc(C(=O)Cc2c(Cl)cncc2Cl)c(OCCc2cccc(Br)c2)c1OC [Compound 127, 1-{2-[2-(3-Bromo-phenyl)-ethoxy]-3,4-dimethoxy-phenyl}-2-(3,5-dichloro-pyridin-4-yl)-ethanone] | < 1000
8 | COc1ccccc1CCOc1c(C(=O)Cc2c(Cl)cncc2Cl)ccc(OC)c1OC [Compound 128, 2-(3,5-Dichloro-pyridin-4-yl)-1-{3,4-dimethoxy-2-[2-(2-methoxy-phenyl)-ethoxy]-phenyl}-ethanone] | < 1000
9 | COc1ccc(C(=O)Cc2c(Cl)cncc2Cl)c(OCCc2ccc(F)cc2)c1OC [Compound 129, 2-(3,5-Dichloro-pyridin-4-yl)-1-{2-[2-(4-fluoro-phenyl)-ethoxy]-3,4-dimethoxy-phenyl}-ethanone] | < 1000
10 | COc1ccc(C(=O)Cc2c(Cl)cncc2Cl)c(OCCc2ccccc2F)c1OC [Compound 130, 2-(3,5-Dichloro-pyridin-4-yl)-1-(2-[2-(2-fluoro-phenyl)-ethoxy)-3,4-dimethoxy-phenyl]-ethanone] | < 1000
11 | COc1ccc(CCOc2c(C(=O)Cc3c(Cl)cncc3Cl)ccc(OC)c2OC)cc1OC [Compound 131, 2-(3,5-Dichloro-pyridin-4-yl)-1-{2-[2-(3,4-dimethoxy-phenyl)-ethoxy]-3,4-dimethoxy-phenyl}-ethanone] | < 1000
12 | COc1ccc(C(=O)Cc2c(Cl)cncc2Cl)c(OCC(=O)OCc2ccccc2)c1OC [Compound 132, {6-[2-(3,5-Dichloro-pyridin-4-yl)-acetyl]-2,3-dimethoxy-phenoxy}-acetic acid benzyl ester] | < 1000
13 | COc1ccc(C(=O)Cc2c(Cl)cncc2Cl)c(OCC(=O)OC(C)C)c1OC [Compound 133, {6-[2-(3,5-Dichloro-pyridin-4-yl)-acetyl]-2,3-dimethoxy-phenoxy}-acetic acid isopropyl ester] | < 1000
14 | COC(=O)c1cccc(COc2c(C(=O)Cc3c(Cl)cncc3Cl)ccc(OC)c2OC)c1 [Compound 134, 3-{6-[2-(3,5-Dichloro-pyridin-4-yl)-acetyl]-2,3-dimethoxy-phenoxymethyl}-benzoic acid methyl ester] | < 1000
15 | COc1ccc(C(=O)Cc2c(Cl)cncc2Cl)c(OCCC(C)C)c1OC [Compound 135, 2-(3,5-Dichloro-pyridin-4-yl)-1-(3,4-dimethoxy-2-(3-methyl-butoxy)-phenyl)-ethanone] | < 1000
16 | C=CCCOc1c(C(=O)Cc2c(Cl)cncc2Cl)ccc(OC)c1OC [Compound 137, 1-(2-But-3-enyloxy-3,4-dimethoxy-phenyl)-2-(3,5-dichloro-pyridin-4-yl)-ethanone] | < 1000
17 | C=CCCCOc1c(C(=O)Cc2c(Cl)cncc2Cl)ccc(OC)c1OC [Compound 138, 2-(3,5-Dichloro-pyridin-4-yl)-1-(3,4-dimethoxy-2-pent-4-enyloxy-phenyl)-ethanone] | < 1000
18 | CCCCOc1c(C(=O)Cc2c(Cl)cncc2Cl)ccc(OC)c1OC [Compound 140, 1-(2-Butoxy-3,4-dimethoxy-phenyl)-2-(3,5-dichloro-pyridin-4-yl)-ethanone] | < 1000
19 | COc1ccc(C(=O)Cc2c(Cl)cncc2Cl)c(OCC(C)C)c1OC [Compound 141, 2-(3,5-Dichloro-pyridin-4-yl)-1-(2-isobutoxy-3,4-dimethoxy-phenyl)-ethanone] | < 1000
20 | CCOC(=O)CCCOc1c(C(=O)Cc2c(Cl)cncc2Cl)ccc(OC)c1OC [Compound 142, 4-{6-[2-(3,5-Dichloro-pyridin-4-yl)-acetyl]-2,3-dimethoxy-phenoxy}-butyric acid ethyl ester] | < 1000
21 | COc1ccc(C(=O)Cc2c(Cl)cncc2Cl)c(OCc2ccc(C)cc2)c1OC [Compound 143, 2-(3,5-Dichloro-pyridin-4-yl)-1-[3,4-dimethoxy-2-(4-methyl-benzyloxy)-phenyl]-ethanone] | < 1000
22 | COc1ccc(C(=O)Cc2c(Cl)cncc2Cl)c(OCc2cccc(Cl)c2)c1OC [Compound 144, 1-[2-(3-Chloro-benzyloxy)-3,4-dimethoxy-phenyl]-2-(3,5-dichloro-pyridin-4-yl)-ethanone] | < 1000
23 | COc1ccc(C(=O)Cc2c(Cl)cncc2Cl)c(OCCCOc2ccccc2)c1OC [Compound 145, 2-(3,5-Dichloro-pyridin-4-yl)-1-[3,4-dimethoxy-2-(3-phenoxy-propoxy)-phenyl]-ethanone] | < 1000
24 | COc1ccc(C(=O)COc2c(C(=O)Cc3c(Cl)cncc3Cl)ccc(OC)c2OC)cc1 [Compound 146, 2-(3,5-Dichloro-pyridin-4-yl)-1-{3,4-dimethoxy-2-[2-(4-methoxy-phenyl)-2-oxo-ethoxy]-phenyl}-ethanone] | < 1000
25 | COc1ccc(C(=O)Cc2c(Cl)cncc2Cl)c(OCc2ccccc2C#N)c1OC [Compound 147, 2-{6-[2-(3,5-Dichloro-pyridin-4-yl)-acetyl]-2,3-dimethoxy-phenoxymethyl}-benzonitrile] | < 1000
26 | COc1ccc(C(=O)Cc2c(Cl)cncc2Cl)c(OCc2ccc(C#N)cc2)c1OC [Compound 148, 4-{6-[2-(3,5-Dichloro-pyridin-4-yl)-acetyl]-2,3-dimethoxy-phenoxymethyl}-benzonitrile] | < 1000
27 | CCCCCOc1c(C(=O)Cc2c(Cl)cncc2Cl)ccc(OC)c1OC [Compound 150, 2-(3,5-Dichloro-pyridin-4-yl)-1-(3,4-dimethoxy-2-pentyloxy-phenyl)-ethanone] | < 1000
28 | COc1ccc(C(=O)Cc2c(Cl)cncc2Cl)c(OCC2CCCCC2)c1OC [Compound 151, 1-(2-Cyclohexylmethoxy-3,4-dimethoxy-phenyl)-2-(3,5-dichloro-pyridin-4-yl)-ethanone] | < 1000
29 | COc1ccc(C(=O)Cc2c(Cl)cncc2Cl)c(OCc2cccc(C#N)c2)c1OC [Compound 152, 3-{6-[2-(3,5-Dichloro-pyridin-4-yl)-acetyl]-2,3-dimethoxy-phenoxymethyl}-benzonitrile] | < 1000
